Test results published in patent publication US8952024B2, “Herbicidal pyrimidone derivatives” (E I du Pont de Nemours and Company, priority 2009, dated 2015).

What was measured:
Assay type in all cases: in vivo
[1] = tested on: rice (Oryza sativa); test: Test B flooded paddy test; conditions: for Plant response rating, Flood, Rice: 250 g ai/ha, flooded paddy test, visual rating on 0 to 100 scale (0 no effect, 100 complete control) after 13 to 15 days; for Plant response rating, Rice: Flood (flooded paddy test), 13 to 15 days; for Rice plant response rating: Flood, 31 g ai/ha, scale 0 to 100 (0 no effect, 100 complete control)
Outline: (§1)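 Flooded-pot test: water raised to 3 cm above soil when treating, compound put in the water, level unchanged thereafter. Plants were at 2 leaves. Readout after 13 to 15 days, visual, relative to controls; 0 signifies no effect and 100 complete control.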

[2] = tested on: umbrella sedge (Cyperus difformis); test: Test B flooded paddy test; conditions: for Plant response rating, Flood, Sedge, Umbrella: 250 g ai/ha, flooded paddy test, visual rating on 0 to 100 scale (0 no effect, 100 complete control) after 13 to 15 days; for Plant response rating, Sedge, Umbrella: Flood (flooded paddy test), 13 to 15 days; for Sedge, Umbrella plant response rating: Flood, 31 g ai/ha, scale 0 to 100 (0 no effect, 100 complete control)
Outline: as §1

[3] = tested on: ducksalad (Heteranthera limosa); test: Test B flooded paddy test; conditions: for Plant response rating, Flood, Ducksalad: 250 g ai/ha, flooded paddy test, visual rating on 0 to 100 scale (0 no effect, 100 complete control) after 13 to 15 days; for Plant response rating, Ducksalad: Flood (flooded paddy test), 13 to 15 days; for Ducksalad plant response rating: Flood, 31 g ai/ha, scale 0 to 100 (0 no effect, 100 complete control)
Outline: as §1

[4] = tested on: barnyardgrass (Echinochloa crus-galli); test: Test B flooded paddy test; conditions: for Plant response rating, Flood, Barnyardgrass: 250 g ai/ha, flooded paddy test, visual rating on 0 to 100 scale (0 no effect, 100 complete control) after 13 to 15 days; for Plant response rating, Barnyardgrass: Flood (flooded paddy test), 13 to 15 days; for Barnyardgrass plant response rating: Flood, 31 g ai/ha, scale 0 to 100 (0 no effect, 100 complete control)
Outline: as §1

[5] = tested on: morningglory (Ipomoea spp.); test: Test A pre-/postemergence plant response
Outline: (§2)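 Visual injury rating on a 0–100 scale (0 = no effect, 100 = complete control) was made versus untreated controls after about ten days in the greenhouse. Compounds, formulated in a non-phytotoxic solvent mix containing surfactant, were sprayed preemergence onto loam/sand soil and postemergence onto one- to two-leaf plants.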

[6] = tested on: pigweed (Amaranthus retroflexus); test: Test A pre-/postemergence plant response
Outline: as §2

[7] = tested on: wheat (Triticum aestivum); test: Test A pre-/postemergence plant response
Outline: as §2

[8] = tested on: velvetleaf (Abutilon theophrasti); test: Test A pre-/postemergence plant response
Outline: as §2

[9] = tested on: corn (Zea mays); test: Test A pre-/postemergence plant response; conditions: for Corn plant response rating: visual injury, 0 to 100 scale (0 no effect, 100 complete control), approx. ten days
Outline: as §2

[10] = tested on: giant foxtail (Setaria faberii); test: Test A pre-/postemergence plant response
Outline: as §2

[11] = tested on: large crabgrass (Digitaria sanguinalis); test: Test A pre-/postemergence plant response; conditions: for Crabgrass, Large plant response rating: visual injury, 0 to 100 scale (0 no effect, 100 complete control), approx. ten days
Outline: as §2

[12] = tested on: barnyardgrass (Echinochloa crus-galli); test: Test A pre-/postemergence plant response; conditions: for Barnyardgrass plant response rating: visual injury, 0 to 100 scale (0 no effect, 100 complete control), approx. ten days
Outline: as §2

[13] = 62 g ai/ha, scale of 0 to 100 where 0 is no effect and 100 is complete control
[14] = 125 g ai/ha, scale 0 to 100, 0 is no effect, 100 is complete control
[15] = Postemergence, 125 g ai/ha, visual injury, 0 to 100 scale (0 no effect, 100 complete control), approx. ten days
[16] = Postemergence, 500 g ai/ha, visual injury, 0 to 100 scale (0 no effect, 100 complete control), approx. ten days
[17] = Preemergence, 125 g ai/ha, 0 to 100 scale where 0 is no effect and 100 is complete control, approximately ten days
[18] = Preemergence, 500 g ai/ha, 0 to 100 scale, 0 = no effect, 100 = complete control
[19] = Postemergence, 125 g ai/ha, 0 to 100 scale where 0 is no effect and 100 is complete control

SMILES: O=C(C1=C(O)C2CCC(C2)C1=O)c1cnc(-c2ccccc2)n(C2CCCCC2)c1=O (stereo not drawn) [Compound 248]
- Plant response rating, Flood, Rice [1]: 0
- Plant response rating, Rice [1, 13]: 0
- Plant response rating, Rice [1, 14]: 0
- Rice plant response rating [1]: 0
- Plant response rating, Flood, Sedge, Umbrella [2]: 85
- Plant response rating, Sedge, Umbrella [2, 13]: 65
- Plant response rating, Sedge, Umbrella [2, 14]: 75
- Sedge, Umbrella plant response rating [2]: 50
- Plant response rating, Flood, Ducksalad [3]: 90
- Plant response rating, Ducksalad [3, 13]: 80
- Plant response rating, Ducksalad [3, 14]: 80
- Ducksalad plant response rating [3]: 75
- Plant response rating, Flood, Barnyardgrass [4]: 40
- Plant response rating, Barnyardgrass [4, 13]: 0
- Plant response rating, Barnyardgrass [4, 14]: 0
- Barnyardgrass plant response rating [4]: 0
- Plant response rating, Morningglory [5, 15]: 100
- Morningglory plant response rating [5, 16]: 100
- Plant response rating, Morningglory [5, 17]: 0
- Plant response rating, Morningglory [5, 18]: 40
- Plant response rating, Pigweed [6, 15]: 80
- Pigweed plant response rating [6, 16]: 90
- Plant response rating, Pigweed [6, 17]: 0
- Plant response rating, Pigweed [6, 18]: 40
- Plant response rating, Wheat [7, 15]: 0
- Wheat plant response rating [7, 16]: 0
- Plant response rating, Wheat [7, 17]: 0
- Plant response rating, Wheat [7, 18]: 20
- Plant response rating, Velvetleaf [8, 15]: 100
- Velvetleaf plant response rating [8, 16]: 100
- Plant response rating, Velvetleaf [8, 17]: 20
- Plant response rating, Velvetleaf [8, 18]: 60
- Plant response rating, Corn [9, 19]: 0
- Corn plant response rating ([9]; Postemergence, 500 g ai/ha): 30
- Plant response rating, Corn [9, 17]: 0
- Plant response rating, Corn [9, 18]: 20
- Plant response rating, Foxtail, Giant [10, 15]: 50
- Foxtail, Giant plant response rating [10, 16]: 100
- Plant response rating, Foxtail, Giant [10, 17]: 10
- Plant response rating, Foxtail, Giant [10, 18]: 20
- Plant response rating, Crabgrass, Large [11, 19]: 50
- Crabgrass, Large plant response rating ([11]; Postemergence, 500 g ai/ha): 80
- Plant response rating, Crabgrass, Large [11, 17]: 10
- Plant response rating, Crabgrass, Large [11, 18]: 70
- Plant response rating, Barnyardgrass [12, 19]: 90
- Barnyardgrass plant response rating ([12]; Postemergence, 500 g ai/ha): 100
- Plant response rating, Barnyardgrass [12, 17]: 0
- Plant response rating, Barnyardgrass [12, 18]: 30

SMILES: O=C(C1=C(O)C2CCC(C2)C1=O)c1cnc(-c2cc(F)c(F)c(F)c2)n(C2CCCCC2)c1=O (stereo not drawn) [Compound 251]
- Plant response rating, Flood, Rice [1]: 10
- Plant response rating, Rice [1, 13]: 0
- Plant response rating, Rice [1, 14]: 0
- Rice plant response rating [1]: 0
- Plant response rating, Flood, Sedge, Umbrella [2]: 75
- Plant response rating, Sedge, Umbrella [2, 13]: 50
- Plant response rating, Sedge, Umbrella [2, 14]: 65
- Sedge, Umbrella plant response rating [2]: 0
- Plant response rating, Flood, Ducksalad [3]: 80
- Plant response rating, Ducksalad [3, 13]: 0
- Plant response rating, Ducksalad [3, 14]: 50
- Ducksalad plant response rating [3]: 0
- Plant response rating, Flood, Barnyardgrass [4]: 20
- Plant response rating, Barnyardgrass [4, 13]: 0
- Plant response rating, Barnyardgrass [4, 14]: 0
- Barnyardgrass plant response rating [4]: 0
- Plant response rating, Morningglory [5, 15]: 100
- Morningglory plant response rating [5, 16]: 100
- Plant response rating, Morningglory [5, 17]: 0
- Plant response rating, Morningglory [5, 18]: 40
- Plant response rating, Pigweed [6, 15]: 70
- Pigweed plant response rating [6, 16]: 80
- Plant response rating, Pigweed [6, 17]: 0
- Plant response rating, Pigweed [6, 18]: 60
- Plant response rating, Wheat [7, 15]: 0
- Wheat plant response rating [7, 16]: 10
- Plant response rating, Wheat [7, 17]: 0
- Plant response rating, Wheat [7, 18]: 0
- Plant response rating, Velvetleaf [8, 15]: 100
- Velvetleaf plant response rating [8, 16]: 100
- Plant response rating, Velvetleaf [8, 17]: 50
- Plant response rating, Velvetleaf [8, 18]: 70
- Plant response rating, Corn [9, 19]: 0
- Corn plant response rating ([9]; Postemergence, 500 g ai/ha): 20
- Plant response rating, Corn [9, 17]: 0
- Plant response rating, Corn [9, 18]: 0
- Plant response rating, Foxtail, Giant [10, 15]: 50
- Foxtail, Giant plant response rating [10, 16]: 90
- Plant response rating, Foxtail, Giant [10, 17]: 10
- Plant response rating, Foxtail, Giant [10, 18]: 40
- Plant response rating, Crabgrass, Large [11, 19]: 50
- Crabgrass, Large plant response rating ([11]; Postemergence, 500 g ai/ha): 90
- Plant response rating, Crabgrass, Large [11, 17]: 20
- Plant response rating, Crabgrass, Large [11, 18]: 80
- Plant response rating, Barnyardgrass [12, 19]: 80
- Barnyardgrass plant response rating ([12]; Postemergence, 500 g ai/ha): 100
- Plant response rating, Barnyardgrass [12, 17]: 0
- Plant response rating, Barnyardgrass [12, 18]: 20
